Target: T1, Recombinant Human ENPP-2/Autotaxin (Homo sapiens, UniProt Q13822)
T1 construct: purchased R&D systems 5255-EN
Experiment: LysoPLD activity measurement (autotaxin enzyme inhibition, choline release, TOOS reagent)
Assay type: biochemical
Conditions: LysoPLD inhibitory activity; substrate 14:0 LysoPC; absorbance at 555 nm
Method: Such a measurement method is a method of measuring the amount of choline, which is a reaction product in an autotaxin enzyme reaction, using a TOOS reagent. Depending on the activity of the autotaxin inhibitor, the amount of choline produced as a reaction product varies, which affects the final absorbance.
After 30 min, 14:0 LysoPC of the substrate diluted to a concentration of 300 μM with the enzyme reaction buffer solution was dispensed into each well by 50 μL and allowed to stand at 37° C. for 90 minutes. At this time, negative control wells were dispensed with 1% DMSO, substrate, and autotaxin instead of the compound, and positive control wells were dispensed with 1% DMSO and substrate.

IC50 [nM]	SMILES
10 to 100	O=C(O)c1cc(Cn2c(=O)n(-c3ccc(N4CCOCC4)cc3)c3cc(Cl)ccc32)cc(F)c1F [Example 203, 5-((5-chloro-3-(4-morpholinophenyl)-2-oxo-2,3-dihydro-1H-benzo[d]imidazol-1-yl)methyl)-2,3-difluorobenzoic acid]
100 to 1000	CN1CCN(c2ccc(-n3c(=O)n(Cc4cccc(C(=O)O)c4)c4ccc(Cl)cc43)cc2)CC1 [Example 97, 3-((5-chloro-3-(4-(4-methylpiperazin-1-yl)phenyl)-2-oxo-2,3-dihydro-1H-benzo[d]imidazol-1-yl)methyl)benzoic acid]
< 10	O=C(O)c1cccc(Cn2c(=O)n(-c3ccc(C(=O)N4CCCC4)cc3)c3cc(Cl)ccc32)c1 [Example 45, 3-((5-chloro-2-oxo-3-(4-(pyrrolidine-1-carbonyl)phenyl)-2,3-dihydro-1H-benzo[d]imidazol-1-yl)methyl)benzoic acid]
< 10	O=C(O)c1cccc(C2(n3c(=O)n(-c4ccc(-c5nnc(C6CCOCC6)o5)cc4)c4cc(Cl)ccc43)CC2)c1F [Example 268, 3-(1-(5-chloro-2-oxo-3-(4-(5-(tetrahydro-2H-pyran-4-yl)-1,3,4-oxadiazol-2-yl)phenyl)-2,3-dihydro-1H-benzo[d]imidazol-1-yl)cyclopropyl)-2-fluorobenzoic acid]
10 to 100	O=C(O)c1cccc(C2(n3c(=O)n(-c4nc5ccccc5s4)c4cc(Cl)ccc43)CC2)c1F [Example 144, 3-(1-(3-(benzo[d]thiazol-2-yl)-5-chloro-2-oxo-2,3-dihydro-1H-benzo[d]imidazol-1-yl)cyclopropyl)-2-fluorobenzoic acid]
100 to 1000	O=C(O)c1cccc(Cn2c(=O)n(-c3ccc(N4CCC(F)(F)C4)nc3)c3cc(Cl)ccc32)c1F [Example 166, 3-((5-chloro-3-(6-(3,3-difluoropyrrolidine-1-yl)pyridin-3-yl)-2-oxo-2,3-dihydro-1H-benzo[d]imidazol-1-yl)methyl)-2-fluorobenzoic acid]
100 to 1000	O=C(O)c1cccc(Cn2c(=O)n(-c3ccc(C(=O)NCC(F)(F)F)cc3)c3cc(Cl)ccc32)c1 [Example 23, 3-((5-chloro-2-oxo-3-(4-((2,2,2-trifluoroethyl)carbamoyl)phenyl)-2,3-dihydro-1H-benzo[d]imidazol-1-yl)methyl)benzoic acid]
< 10	O=C(O)c1cccc(C2(n3c(=O)n(-c4ccc(C(=O)N5CC(F)(F)C5)cc4)c4cc(Cl)ccc43)CC2)c1 [Example 129, 3-(1-(5-chloro-3-(4-(3,3-difluoroazetidine-1-carbonyl)phenyl)-2-oxo-2,3-dihydro-1H-benzo[d]imidazol-1-yl)cyclopropyl)benzoic acid]
10 to 100	CN(C)c1ccc(-n2c(=O)n(C3(c4cccc(C(=O)O)c4)CCC3)c3ccc(Cl)cc32)cc1 [Example 156, 3-(1-(5-chloro-3-(4-(dimethylamino)phenyl)-2-oxo-2,3-dihydro-1H-benzo[d]imidazol-1-yl)cyclobutyl)benzoic acid]
< 10	CN(C)c1ccc(-n2c(=O)n(C3(c4cc(F)cc(C(=O)O)c4)CC3)c3ccc(Cl)cc32)cc1 [Example 188, 3-(1-(5-chloro-3-(4-(dimethylamino)phenyl)-2-oxo-2,3-dihydro-1H-benzo[d]imidazol-1-yl)cyclopropyl)-5-fluorobenzoic acid]
< 10	O=C(O)c1cccc(C2(n3c(=O)n(-c4ccc(C5(O)CCC5)cc4)c4cc(Cl)ccc43)CC2)c1 [Example 256, 3-(1-(5-chloro-3-(4-(1-hydroxycyclobutyl)phenyl)-2-oxo-2,3-dihydro-1H-benzo[d]imidazol-1-yl)cyclopropyl)benzoic acid]
< 10	CN1CCOc2cc(-n3c(=O)n(C4(c5cc(F)cc(C(=O)O)c5)CC4)c4ccc(Cl)cc43)ccc21 [Example 255, 3-(1-(5-chloro-3-(4-methyl-3,4-dihydro-2H-benzo[b][1,4]oxazin-7-yl)-2-oxo-2,3-dihydro-1H-benzo[d]imidazol-1-yl)cyclopropyl)-5-fluorobenzoic acid]

Reference: US20260265265A1, “NOVEL BENZIMIDAZOLONE DERIVATIVE COMPOUND AS AUTOTAXIN INHIBITOR” (LG CHEM, LTD., priority 2023, published 2026)
